{"source": "PubChem BioAssay (NCI)", "assay_in_all_cases": "NCI-60 cell line screen, 48 h", "key": {"[1]": {"tested_on": "LOX IMVI melanoma"}, "[2]": {"tested_on": "NCI-H460 lung"}, "[3]": {"tested_on": "U251 CNS"}, "[4]": {"tested_on": "NCI-H522 lung"}, "[5]": {"tested_on": "HOP-62 NSCLC"}, "[6]": {"tested_on": "RPMI-8226 leukemia"}, "[7]": {"tested_on": "HCT-116 colon"}, "[8]": {"tested_on": "SF-539 CNS"}, "[9]": {"tested_on": "OVCAR-4 ovarian"}, "[10]": {"tested_on": "SF-295 CNS"}, "[11]": {"tested_on": "SK-OV-3 ovarian"}, "[12]": {"tested_on": "DU-145 prostate"}, "[13]": {"tested_on": "UACC-257 melanoma"}, "[14]": {"tested_on": "MCF7 breast"}, "[15]": {"tested_on": "NCI/ADR-RES ovarian"}, "[16]": {"tested_on": "HT29 colon"}, "[17]": {"tested_on": "SF-268 CNS"}, "[18]": {"tested_on": "K-562 leukemia"}, "[19]": {"tested_on": "HCC-2998 colon"}, "[20]": {"tested_on": "NCI-H226 lung"}, "[21]": {"tested_on": "SR leukemia"}, "[22]": {"tested_on": "CCRF-CEM leukemia"}, "[23]": {"tested_on": "786-0 renal"}, "[24]": {"tested_on": "T-47D breast"}, "[25]": {"tested_on": "CAKI-1 renal"}, "[26]": {"tested_on": "MDA-N"}, "[27]": {"tested_on": "NCI-H23 lung"}, "[28]": {"tested_on": "UACC-62 melanoma"}, "[29]": {"tested_on": "M14 melanoma"}, "[30]": {"tested_on": "PC-3 prostate"}, "[31]": {"tested_on": "BT-549 breast"}, "[32]": {"tested_on": "TK-10 renal"}, "[33]": {"tested_on": "OVCAR-8 ovarian"}, "[34]": {"tested_on": "SN12C renal"}, "[35]": {"tested_on": "RXF 393 renal"}, "[36]": {"tested_on": "EKVX NSCLC"}, "[37]": {"tested_on": "HCT-15 colon"}, "[38]": {"tested_on": "HOP-92 NSCLC"}, "[39]": {"tested_on": "COLO 205 colon"}, "[40]": {"tested_on": "IGROV1 ovarian"}, "[41]": {"tested_on": "SNB-75 CNS"}, "[42]": {"tested_on": "MDA-MB-435"}, "[43]": {"tested_on": "SK-MEL-28 melanoma"}, "[44]": {"tested_on": "MALME-3M melanoma"}, "[45]": {"tested_on": "SK-MEL-5 melanoma"}, "[46]": {"tested_on": "SNB-19 CNS"}, "[47]": {"tested_on": "KM12 colon"}, "[48]": {"tested_on": "OVCAR-5 ovarian"}, "[49]": {"tested_on": "UO-31 renal"}, "[50]": {"tested_on": "OVCAR-3 ovarian"}, "[51]": {"tested_on": "ACHN renal"}, "[52]": {"tested_on": "HL-60(TB) leukemia"}, "[53]": {"tested_on": "MDA-MB-231 breast"}, "[54]": {"tested_on": "A498 renal"}, "[55]": {"tested_on": "SK-MEL-2 melanoma"}, "[56]": {"tested_on": "A549 NSCLC"}, "[57]": {"tested_on": "SW-620 colon"}, "[58]": {"tested_on": "HS 578T breast"}, "[59]": {"tested_on": "MOLT-4 leukemia"}}, "note": "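Protocol summary: plate cells (96-well), add compound at 5 concentrations, incubate 48 h, interpolate endpoints linearly. The concentration for full growth arrest is given as TGI.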", "data": [{"smiles": "CCOC(=O)c1ccc(N=C2SC(=S)N(c3ccc(F)cc3)C2=Nc2ccc(C(=O)OCC)cc2)cc1", "values": [{"measurement": "TGI", "setting": "[1]", "value": 17.9, "unit": "µM"}, {"measurement": "TGI", "setting": "[2]", "value": "> 100", "unit": "µM"}, {"measurement": "TGI", "setting": "[3]", "value": 44.2, "unit": "µM"}, {"measurement": "TGI", "setting": "[4]", "value": 19.1, "unit": "µM"}, {"measurement": "TGI", "setting": "[5]", "value": "> 89", "unit": "µM"}, {"measurement": "TGI", "setting": "[6]", "value": 51.3, "unit": "µM"}, {"measurement": "TGI", "setting": "[7]", "value": 41.6, "unit": "µM"}, {"measurement": "TGI", "setting": "[8]", "value": 42.7, "unit": "µM"}, {"measurement": "TGI", "setting": "[9]", "value": 33.4, "unit": "µM"}, {"measurement": "TGI", "setting": "[10]", "value": "> 100", "unit": "µM"}, {"measurement": "TGI", "setting": "[11]", "value": "> 100", "unit": "µM"}, {"measurement": "TGI", "setting": "[12]", "value": "> 100", "unit": "µM"}, {"measurement": "TGI", "setting": "[13]", "value": 37.4, "unit": "µM"}, {"measurement": "TGI", "setting": "[14]", "value": 42.2, "unit": "µM"}, {"measurement": "TGI", "setting": "[15]", "value": 44.8, "unit": "µM"}, {"measurement": "TGI", "setting": "[16]", "value": 51.6, "unit": "µM"}, {"measurement": "TGI", "setting": "[17]", "value": "> 37.6", "unit": "µM"}, {"measurement": "TGI", "setting": "[18]", "value": 47.3, "unit": "µM"}, {"measurement": "TGI", "setting": "[19]", "value": "> 80.5", "unit": "µM"}, {"measurement": "TGI", "setting": "[20]", "value": 43.1, "unit": "µM"}, {"measurement": "TGI", "setting": "[21]", "value": 29.3, "unit": "µM"}, {"measurement": "TGI", "setting": "[22]", "value": "> 57.6", "unit": "µM"}, {"measurement": "TGI", "setting": "[23]", "value": 31.6, "unit": "µM"}, {"measurement": "TGI", "setting": "[24]", "value": 22.7, "unit": "µM"}, {"measurement": "TGI", "setting": "[25]", "value": 37.8, "unit": "µM"}, {"measurement": "TGI", "setting": "[26]", "value": 35.4, "unit": "µM"}, {"measurement": "TGI", "setting": "[27]", "value": 44.2, "unit": "µM"}, {"measurement": "TGI", "setting": "[28]", "value": 21.5, "unit": "µM"}, {"measurement": "TGI", "setting": "[29]", "value": 25.6, "unit": "µM"}, {"measurement": "TGI", "setting": "[30]", "value": 40.6, "unit": "µM"}, {"measurement": "TGI", "setting": "[31]", "value": 40.6, "unit": "µM"}, {"measurement": "TGI", "setting": "[32]", "value": 36.6, "unit": "µM"}, {"measurement": "TGI", "setting": "[33]", "value": 22.3, "unit": "µM"}, {"measurement": "TGI", "setting": "[34]", "value": 33.6, "unit": "µM"}, {"measurement": "TGI", "setting": "[35]", "value": 23.3, "unit": "µM"}, {"measurement": "TGI", "setting": "[36]", "value": 63.9, "unit": "µM"}, {"measurement": "TGI", "setting": "[37]", "value": 21.4, "unit": "µM"}, {"measurement": "TGI", "setting": "[38]", "value": 26, "unit": "µM"}, {"measurement": "TGI", "setting": "[39]", "value": 40.3, "unit": "µM"}, {"measurement": "TGI", "setting": "[40]", "value": 30.8, "unit": "µM"}, {"measurement": "TGI", "setting": "[41]", "value": 52.4, "unit": "µM"}, {"measurement": "TGI", "setting": "[42]", "value": 40.7, "unit": "µM"}, {"measurement": "TGI", "setting": "[43]", "value": 42.3, "unit": "µM"}, {"measurement": "TGI", "setting": "[44]", "value": 36.6, "unit": "µM"}, {"measurement": "TGI", "setting": "[45]", "value": 25.1, "unit": "µM"}, {"measurement": "TGI", "setting": "[46]", "value": "> 100", "unit": "µM"}, {"measurement": "TGI", "setting": "[47]", "value": "> 71.7", "unit": "µM"}, {"measurement": "TGI", "setting": "[48]", "value": 38.7, "unit": "µM"}, {"measurement": "TGI", "setting": "[49]", "value": 28, "unit": "µM"}, {"measurement": "TGI", "setting": "[50]", "value": "> 53.7", "unit": "µM"}, {"measurement": "TGI", "setting": "[51]", "value": 29.4, "unit": "µM"}, {"measurement": "TGI", "setting": "[52]", "value": 22.3, "unit": "µM"}, {"measurement": "TGI", "setting": "[53]", "value": 25.2, "unit": "µM"}, {"measurement": "TGI", "setting": "[54]", "value": "> 100", "unit": "µM"}, {"measurement": "TGI", "setting": "[55]", "value": 35, "unit": "µM"}, {"measurement": "TGI", "setting": "[56]", "value": "> 84.9", "unit": "µM"}, {"measurement": "TGI", "setting": "[57]", "value": 30, "unit": "µM"}, {"measurement": "TGI", "setting": "[58]", "value": 91.7, "unit": "µM"}, {"measurement": "TGI", "setting": "[59]", "value": 35.1, "unit": "µM"}]}]}
